Experimental data taken from ChEMBL document CHEMBL1201862, “PubChem BioAssay data set” (2004).
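Tested at 5 concentrations; 48 h exposure; 96-well plates; endpoints linearly interpolated, else capped at highest concentration. The concentration for 50% growth inhibition is given as GI50.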 Calls of active or inactive are those of the source. No stated cut-off is given here; in the data, active = GI50 up to about 1.1 µM and inactive = higher.

Key:
Experiment in all cases: NCI-60 cell line screen, 48 h
786-0 = tested on: 786-0
CCRF-CEM = tested on: CCRF-CEM
HCC 2998 = tested on: HCC 2998
HOP-92 = tested on: HOP-92
IGROV-1 = tested on: IGROV-1
K562 = tested on: K562
LOX IMVI = tested on: LOX IMVI
Malme-3M = tested on: Malme-3M
NCI-H226 = tested on: NCI-H226
NCI-H522 = tested on: NCI-H522
RPMI-8226 = tested on: RPMI-8226
SK-MEL-28 = tested on: SK-MEL-28
SK-OV-3 = tested on: SK-OV-3
SN12C = tested on: SN12C
SNB-19 = tested on: SNB-19
SNB-75 = tested on: SNB-75
U-251 = tested on: U-251
UACC-257 = tested on: UACC-257
T47D = tested on: T47D

Measured: GI50

CN(/N=C/c1ccnc2ccccc12)c1ccc([N+](=O)[O-])cc1[N+](=O)[O-]
inactive: 786-0 30.6 µM | CCRF-CEM > 100 µM | HCC 2998 > 100 µM | HOP-92 46.9 µM | IGROV-1 > 100 µM | K562 > 100 µM | LOX IMVI 81.7 µM | Malme-3M 61 µM | NCI-H226 > 100 µM | NCI-H522 > 100 µM | RPMI-8226 > 100 µM | SK-MEL-28 87.7 µM | SK-OV-3 47.5 µM | SN12C > 100 µM | SNB-19 77.4 µM | SNB-75 20.7 µM | U-251 > 100 µM | UACC-257 > 100 µM

Nc1ccc(C(=O)NN2C(=O)C(Cl)C2c2ccccc2O)cc1 (configuration not stated)
inactive: 786-0 30.2 µM | CCRF-CEM 6.01 µM | HCC 2998 18.7 µM | HOP-92 > 100 µM | IGROV-1 > 100 µM | K562 75 µM | LOX IMVI 18.8 µM | Malme-3M > 100 µM | NCI-H226 69.2 µM | NCI-H522 62.2 µM | RPMI-8226 44.5 µM | SK-MEL-28 > 100 µM | SK-OV-3 71.6 µM | SN12C > 100 µM | SNB-19 > 100 µM | SNB-75 52.2 µM | U-251 36 µM | UACC-257 > 100 µM

C/C=C/C=N/N(c1nnc(-c2ccccc2)c(-c2ccccc2)n1)S(=O)(=O)c1ccc(C)cc1
inactive: 786-0 6.78 µM | CCRF-CEM 2.49 µM | HCC 2998 17 µM | HOP-92 16.2 µM | IGROV-1 13.1 µM | K562 6.37 µM | LOX IMVI 3.6 µM | Malme-3M 10.4 µM | NCI-H226 15.3 µM | NCI-H522 4.75 µM | RPMI-8226 4.19 µM | SK-MEL-28 13.5 µM | SK-OV-3 18.7 µM | SN12C 8.13 µM | SNB-75 3.61 µM | U-251 4.04 µM | UACC-257 8.34 µM

CC(=O)/C=C/c1ccc(C)cc1
inactive: 786-0 > 100 µM | CCRF-CEM > 100 µM | HCC 2998 > 100 µM | HOP-92 > 100 µM | IGROV-1 > 100 µM | K562 > 100 µM | LOX IMVI > 100 µM | Malme-3M > 100 µM | NCI-H226 > 100 µM | NCI-H522 > 100 µM | RPMI-8226 > 100 µM | SK-MEL-28 > 100 µM | SK-OV-3 > 100 µM | SN12C > 100 µM | SNB-19 > 100 µM | SNB-75 > 100 µM | U-251 > 100 µM | UACC-257 > 100 µM

COC(=O)/C(C#N)=C1\NN=NN1CCCN1CCOCC1
inactive: 786-0 > 100 µM | CCRF-CEM > 100 µM | HCC 2998 > 100 µM | HOP-92 > 100 µM | IGROV-1 > 100 µM | K562 > 100 µM | LOX IMVI > 100 µM | Malme-3M > 100 µM | NCI-H226 > 100 µM | NCI-H522 > 100 µM | RPMI-8226 > 100 µM | SK-MEL-28 > 100 µM | SK-OV-3 > 100 µM | SN12C > 100 µM | SNB-19 > 100 µM | SNB-75 > 100 µM | U-251 > 100 µM | UACC-257 > 100 µM

CCOC(=O)c1c(C(F)(F)F)oc2c1ccc1nc3nonc3nc12
inactive: 786-0 12.4 µM | CCRF-CEM 1.91 µM | HCC 2998 24.9 µM | HOP-92 13.2 µM | IGROV-1 23.2 µM | K562 2.67 µM | LOX IMVI 16.2 µM | Malme-3M 17 µM | NCI-H226 19.9 µM | NCI-H522 15.1 µM | RPMI-8226 6.07 µM | SK-MEL-28 14.3 µM | SK-OV-3 20.1 µM | SN12C 17.4 µM | SNB-19 18.2 µM | SNB-75 13.2 µM | U-251 15.7 µM | UACC-257 13.5 µM

CCCCC1CC(c2cccc([N+](=O)[O-])c2)=NO1 (configuration not stated)
inactive: 786-0 > 100 µM | CCRF-CEM 48.5 µM | HCC 2998 58.5 µM | HOP-92 > 100 µM | IGROV-1 > 100 µM | K562 60.8 µM | Malme-3M > 100 µM | NCI-H226 > 100 µM | NCI-H522 29.5 µM | RPMI-8226 74.3 µM | SK-MEL-28 > 100 µM | SK-OV-3 > 100 µM | SN12C > 100 µM | SNB-19 > 100 µM | SNB-75 > 100 µM | U-251 83.2 µM | UACC-257 48.3 µM

COc1ccc(OC)c2c1C=C[C@H](C1(C)SCCS1)C2C(C)=O (some centres not stated)
inactive: 786-0 31.7 µM | CCRF-CEM 27.7 µM | HCC 2998 50.1 µM | HOP-92 32.8 µM | IGROV-1 42.4 µM | K562 32.7 µM | LOX IMVI 9.84 µM | Malme-3M 20.7 µM | NCI-H226 24 µM | NCI-H522 13.9 µM | RPMI-8226 18.6 µM | SK-MEL-28 24.8 µM | SK-OV-3 20.4 µM | SN12C 35.3 µM | SNB-19 27.4 µM | T47D 24.2 µM | U-251 26.1 µM | UACC-257 35.6 µM

CN(C(=O)C1CC1)C1C2CN3CCC(O2)C13 (configuration not stated)
inactive: 786-0 > 100 µM | CCRF-CEM > 100 µM | HCC 2998 > 100 µM | HOP-92 > 100 µM | IGROV-1 > 100 µM | K562 > 100 µM | LOX IMVI > 100 µM | Malme-3M > 100 µM | NCI-H226 > 100 µM | NCI-H522 > 100 µM | RPMI-8226 > 100 µM | SK-MEL-28 > 100 µM | SK-OV-3 > 100 µM | SN12C > 100 µM | SNB-19 > 100 µM | SNB-75 > 100 µM | U-251 > 100 µM | UACC-257 > 100 µM

Cc1ccc(Nc2nc(C)c(C(=O)CC(=O)C(=O)Nc3ccc(Cl)cc3)s2)cc1
inactive: 786-0 > 100 µM | CCRF-CEM > 100 µM | HCC 2998 > 100 µM | HOP-92 > 100 µM | IGROV-1 > 100 µM | K562 > 100 µM | LOX IMVI > 100 µM | Malme-3M 76.6 µM | NCI-H522 > 100 µM | RPMI-8226 > 100 µM | SK-MEL-28 > 100 µM | SK-OV-3 > 100 µM | SN12C > 100 µM | SNB-19 > 100 µM | SNB-75 30.9 µM | T47D > 100 µM | U-251 > 100 µM | UACC-257 > 100 µM

CCc1cccc(C)c1NC(=O)CC1Sc2ccccc2NC1=O (configuration not stated)
inactive: 786-0 29.2 µM | CCRF-CEM 25.2 µM | HCC 2998 22.4 µM | HOP-92 32.8 µM | IGROV-1 88.7 µM | K562 23.8 µM | LOX IMVI 48.8 µM | Malme-3M 27.3 µM | NCI-H226 16 µM | NCI-H522 20 µM | RPMI-8226 24.4 µM | SK-MEL-28 84.7 µM | SK-OV-3 75.7 µM | SN12C > 100 µM | SNB-19 57.4 µM | SNB-75 10.7 µM | U-251 31.5 µM | UACC-257 11.4 µM

C1CC2=C(C1)C1=S(S2)SC2=C1CCC2
inactive: 786-0 > 100 µM | CCRF-CEM > 100 µM | HCC 2998 > 100 µM | HOP-92 > 100 µM | IGROV-1 > 100 µM | K562 > 100 µM | LOX IMVI > 100 µM | Malme-3M > 100 µM | NCI-H226 > 100 µM | NCI-H522 > 100 µM | RPMI-8226 > 100 µM | SK-MEL-28 > 100 µM | SK-OV-3 > 100 µM | SN12C > 100 µM | SNB-19 > 100 µM | SNB-75 > 100 µM | U-251 > 100 µM | UACC-257 > 100 µM

CC1(O)Oc2ccc3ccccc3c2C=C1C(N)=O (configuration not stated)
inactive: 786-0 > 100 µM | CCRF-CEM 86.5 µM | HCC 2998 > 100 µM | HOP-92 77.1 µM | IGROV-1 79.8 µM | K562 > 100 µM | LOX IMVI > 100 µM | RPMI-8226 33.3 µM | SK-MEL-28 > 100 µM | SK-OV-3 > 100 µM | SNB-19 > 100 µM | SNB-75 52 µM | T47D 36.6 µM | U-251 > 100 µM | UACC-257 > 100 µM

COc1ccc2c(c1)CC1c3c(cc4c(c3-2)OCO4)CCN1C (configuration not stated)
inactive: 786-0 27.6 µM | CCRF-CEM 23 µM | HCC 2998 41.1 µM | HOP-92 18.1 µM | IGROV-1 31.7 µM | K562 23.3 µM | Malme-3M 28 µM | NCI-H226 24.6 µM | NCI-H522 15.6 µM | RPMI-8226 24.8 µM | SK-MEL-28 28.8 µM | SK-OV-3 21.3 µM | SN12C 33.3 µM | SNB-19 42 µM | SNB-75 22.6 µM | U-251 31.6 µM | UACC-257 24.1 µM

Cl.O=C(O)c1cccnc1
inactive: 786-0 > 100 µM | CCRF-CEM > 100 µM | HCC 2998 > 100 µM | HOP-92 > 100 µM | IGROV-1 > 100 µM | K562 > 100 µM | LOX IMVI > 100 µM | Malme-3M > 100 µM | NCI-H226 > 100 µM | NCI-H522 > 100 µM | RPMI-8226 > 100 µM | SK-MEL-28 > 100 µM | SN12C > 100 µM | SNB-19 > 100 µM | SNB-75 > 100 µM | T47D > 100 µM | U-251 > 100 µM | UACC-257 > 100 µM

CSc1nc(-c2ccccc2)nc(C(C#N)C#N)n1
inactive: 786-0 > 100 µM | CCRF-CEM > 100 µM | HCC 2998 > 100 µM | HOP-92 > 100 µM | IGROV-1 > 100 µM | LOX IMVI > 100 µM | Malme-3M > 100 µM | NCI-H226 > 100 µM | NCI-H522 > 100 µM | RPMI-8226 > 100 µM | SK-MEL-28 > 100 µM | SK-OV-3 > 100 µM | SN12C > 100 µM | SNB-19 > 100 µM | SNB-75 > 100 µM | T47D > 100 µM | U-251 > 100 µM | UACC-257 > 100 µM
